Test results published in patent publication US7226949B2, “Compounds of use in the treatment of epilepsy, seizure, and electroconvulsive disorders” (University of Kentucky, priority 2002, dated 2007).

Legend:
6 Hz seizures = experiment: 6 Hz kindling model; type: in vivo, mice
Protocol: The 6 Hz kindling model is another experimental seizure model that effectively detects compounds with anti-seizure activity. This screen is used to evaluate the ability of a compound to prevent the acquisition of focal seizures; in particular, the capacity of a compound to prevent the development of seizures induced by a low-frequency (6 Hz), long duration (three seconds) stimulus in electrode […] is evaluated. Several of the most promising compounds were evaluated in this screen to further characterize their anti-seizure activity.
In the 6 Hz kindling test, mice are implanted with corneal electrodes. The test compound is administered (i.p.) to the animal at 0.25, 0.5, 1, 2, or 4 hours prior seizure induction. The seizure is initiated by delivering a current (32 mA at 6 Hz for three seconds) to the animal through the corneal electrodes. The resulting psychomotor seizure is usually characterized by a minimal clonic phase followed by stereotyped, automatistic behaviors. This response is analogous to the aura of human patients with partial seizures.

rats = experiment: Minimal neurotoxicity in rats, positional sense and gait and stance tests; type: in vivo; details: 250 mg/kg
Description: If the rat experiences neurological toxicity, it will not be able to quickly lift its leg quickly back to a normal position.
In the gait and stance test, neurotoxicity is indicated by a circular or zigzag gait after administration of the test compound. In addition, ataxia, abnormal spread of the legs, abnormal posture, tremor hyperactivity, lack of exploratory behavior, somnolence, stupor, or catalepsy can indicate neurotoxicity.

[1] = system: focal seizures in hippocampal kindled rats; experiment: Hippocampal kindling model; type: in vivo, Sprague-Dawley rats; details: hippocampal kindling model; not as effective as 4,4′-thiodianiline
Description: Hippocampal Kindling Model
The hippocampal kindling model is an experimental seizure model used to simulate focal seizures. This model evaluates the capacity of a compound to affect both the expression and acquisition of focal seizures. In addition, kindled seizures provide a methodology for studying complex brain networks that may contribute to the spread and generalizations of seizures from a focus. The hippocampal kindling model has the advantage of being one of the only kindling models that can evaluate the temporal effects of an agent in a single animal. For this assessment, bipolar electrodes are surgically implanted in the ventral hippocampus of adult male Sprague-Dawley rats (275-300 g) under ketamine-xylazine anesthesia. Following a one-week recovery period, stage five behavioral seizures are induced by stimulating the rat 12 times per day with 50 Hz, 10 s train of 1 ms biphasic 200 μA pulses delivered every 30 min for six hours on alternating days. After five stimulus days, the animal has had 60 stimulations. A drug free control period with supramaximal stimulations is used to verify the stability of a stage five generalized seizure before the anticonvulsant activity of a drug is measured.
This screen is used to measure the capacity of the drug to prevent the expression of focal seizures. […] The animal is exposed to an initial stimulation of 20 μA; the stimulation is increased in 10 μA increments every one-two minutes until an afterdischarge is recorded. After the stability of the stage five seizure is established, the drug candidate is administered to the rats via intraperitoneal injection 15 minutes after the last control stimulation. Starting with the first dose, the anticonvulsant activity of the test agent is measured every thirty minutes for four hours. Following each stimulation, Racine seizure scores and afterdischarge durations are compared to control values to quantify the anti-convulsant activity of the agent. The Racine seizure scores vary from stage 1 to 5. The stages are characterized according to the following criteria: Stage 1—mouth and facial clonus, Stage 2—stage 1 and head nodding, Stage 3—stage 2 and forelimb clonus, Stage 4—stage 3 and rearing, Stage 5—stage 4 and repeated rearing and falling. Since a single animal is used, each rat serves as its own control.
4,4′-Thiodianiline was used in the rat hippocampal kindled rats to screen to measure its anticonvulsant potential. Doses of 12.5, 25, 50 and 100 mg/kg were evaluated at a minimum of seven time points (n=7 for each dose and each time point). […] After oral administration of the test compound stimulation, the Racine seizure scores and afterdischarge durations were measured and are shown below. The Racine seizure scores dropped from between a stage 4 and stage 5 seizure for control measurements to between a stage 1 and stage 2 seizure after treatment with 4,4′-thiodianiline.

mice = experiment: Minimal neurotoxicity in mice, rotorod test; details: 100 mg/kg
Protocol: In mice, the test compound is administered at doses of 30, and 100 mg/kg prior to evaluation in the toxicity screens. The mice are tested at 0.5 hours and 4 hours after intraperitoneal administration of the test compound.
Toxicity in mice weighing between 18 and 25.5 g is assessed using the standardized rotorod test [9]. For each compound tested, a minimum of 18 animals are evaluated for neurotoxicity. Control mice can maintain their equilibrium for an extended period of time when they are placed on a 6-rpm rotation rod. Neurologically impaired animals cannot maintain equilibrium for one minute in each of three successive trials.

MES-induced seizure [2] = experiment: Maximal Electroshock Seizure (MES) test in mice, intraperitoneal administration; type: in vivo
Description: (§1) The Maximal Electroshock Seizure (MES) or Maximal Seizure Pattern Test
(§2) The MES is an experimental model for generalized tonic-clonic seizures that identifies compounds that prevent seizure spread. The MES model is highly reproducible and has a consistent endpoint. An advantage of this model is that the behavioral and electrographic seizures are consistent with those observed in humans.
(§3) In the MES test, the animal receives an electrical stimulus, 0.2 seconds in duration, via corneal electrodes primed with an electrolyte solution containing an anesthetic agent. The 0.2 second stimulation is generated with 150 mA in rats and 50 mA in mice at 60 Hz. […] In rats, the compound is administered orally, while mice receive the agent via intraperitoneal injection. The test endpoint, electrogenic seizure, is manifested as hindlimb tonic extension.

MES-induced seizure [3] = experiment: Maximal Electroshock Seizure (MES) test in rats, oral administration; type: in vivo; details: for Percentage of rats in which the test compound prevented MES-induced seizure: 30 mg/kg oral
Description: as §1, §2, §3
A full dose-response curve was also generated in rats to determine the ED50 value (n=8 at each time point). […] The ED50 of 4,4′-thiodianiline was evaluated in both rats and mice.

[4] = 30 mg/kg i.p., 0.5 h after administration
[5] = 100 mg/kg i.p., 0.5 h after administration
[6] = 100 mg/kg i.p., 4.0 h after administration

Nc1ccc(Oc2ccc(N)cc2)cc1 [4,4′-diaminodiphenyl ether]
Percentage of mice in which the test compound prevented seizure in the 6 Hz test (6 Hz seizures; 30 mg/kg i.p., 0.25 h after administration): 0% | Percentage of mice in which the test compound prevented seizure in the 6 Hz test (6 Hz seizures; [4]): 50% | Percentage of mice in which the test compound prevented seizure in the 6 Hz test (6 Hz seizures; 30 mg/kg i.p., 1.0 h after administration): 25% | Percentage of mice in which the test compound prevented seizure in the 6 Hz test (6 Hz seizures; 30 mg/kg i.p., 2.0 h after administration): 25% | Percentage of mice in which the test compound prevented seizure in the 6 Hz test (6 Hz seizures; 100 mg/kg i.p., 0.25 h after administration): 100% | Percentage of mice in which the test compound prevented seizure in the 6 Hz test (6 Hz seizures; [5]): 100% | Percentage of mice in which the test compound prevented seizure in the 6 Hz test (6 Hz seizures; 100 mg/kg i.p., 1.0 h after administration): 100% | Percentage of mice in which the test compound prevented seizure in the 6 Hz test (6 Hz seizures; 100 mg/kg i.p., 2.0 h after administration): 100% | Percentage of mice in which the test compound prevented seizure in the 6 Hz test (6 Hz seizures; [6]): 0% | toxicity (rats): no significant toxicity | expression of fully kindled seizures [1]: had the capacity to block the expression of fully kindled seizures | toxicity (mice): no significant toxicity | Percentage of mice in which the test compound prevented MES-induced seizure (MES-induced seizure [2]; [4]): 0% | Percentage of mice in which the test compound prevented MES-induced seizure (MES-induced seizure [2]; 30 mg/kg i.p., 4.0 h after administration): 0% | Percentage of mice in which the test compound prevented MES-induced seizure (MES-induced seizure [2]; [5]): 100% | Percentage of mice in which the test compound prevented MES-induced seizure (MES-induced seizure [2]; [6]): 100% | Percentage of mice in which the test compound prevented MES-induced seizure (MES-induced seizure [2]; 300 mg/kg i.p., 0.5 h after administration): 100% | Percentage of mice in which the test compound prevented MES-induced seizure (MES-induced seizure [2]; 300 mg/kg i.p., 4.0 h after administration): 100% | Percentage of rats in which the test compound prevented MES-induced seizure (MES-induced seizure [3]; 0.25 h after administration): 100% | Percentage of rats in which the test compound prevented MES-induced seizure (MES-induced seizure [3]; 0.5 h after administration): 100% | Percentage of rats in which the test compound prevented MES-induced seizure (MES-induced seizure [3]; 1.0 h after administration): 75% | Percentage of rats in which the test compound prevented MES-induced seizure (MES-induced seizure [3]; 2.0 h after administration): 75% | Percentage of rats in which the test compound prevented MES-induced seizure (MES-induced seizure [3]; 4.0 h after administration): 100% | Time to Peak Effect (MES-induced seizure [3]; rat, oral administration, MES test): 6 h | ED50 required to inhibit MES-induced seizure (MES-induced seizure [3]; rat, oral administration, at the time of peak effect, n=8): 5.24 ± 4.67 mg/kg
